Test system: BCR-FMS BaF3 cells
Experiment: Splenomegaly mouse model, BCR-FMS BaF3 cells
Type: in vivo
Details: dosed once per day at 10 mg per kg
Experimental: BaF3 cells are engineered with any of BCR-FMS, BCR-TRK1 or BCR-TRK2 to assess in vivo inhibitory effects of Fms, TrkA or TrkB inhibition, respectively. BaF3 cells are maintained in growth media (RPMI containing 10% FBS, 1% PenStrep, 1% NEAA, and 1% L-Glutamine, supplemented with 5% murine IL-3 and 1 mg/mL G418). Four days prior to start, 2×10^6 cells are inoculated into a T150 vented flask using the growth media and incubated at 37° C. in 5% CO2 for three days. One day prior to start, cells are collected by centrifugation and are suspended in growth media without IL-3. On the day of cell implant, the cells are collected by centrifugation, rinsed 3×20 mL with RPMI, then are suspended in 5.4 mL of media and counted, then adjusted with additional RPMI as needed to give 5×10^7 cells/mL. On day 1, female nu/nu mice at 5-6 weeks of age are injected intravenously with BaF3 cells injected injecting 0.1 mL (5×10^6) cells in the tail vein (mice without cell injected are included as control group). Compound stocks in dimethylsulfoxide are stored at room temperature protected from light. Stocks are diluted prior to dosing, diluting 22 μL of compound stock into 858 μL of diluent (or 50 μL into 1950 μL) to provide vehicle of 1.0% Polysorbate 80, 0.5% hydroxypropyl methyl cellulose, with final dimethylsulfoxide at 2.5% in all dosing suspensions and vehicle control. Dosing suspension is prepared prior to use, mixing by inversion and sonication in a water bath to make a uniform suspension. On days 10-18, mice are treated with vehicle only or the desired level of compound in vehicle, ˜0.2 mL per 25 gm mouse, once a day by oral gavage, or in some instances, twice per day. On day 18, mice are administered a final dose and two hours later a plasma sample is taken. At four hours following the final dose, mice are sacrificed, an additional plasma sample is collected and mouse spleens are removed and weighed. The average spleen weight of vehicle control group mice is compared to the average spleen weight of the test compound mice. Percent spleen growth inhibition is calculated as 100×[(spleen weight vehicle control-spleen weight test compound)/spleen weight vehicle control]. In some instances, the compounds were not tested in all of the assays as indicated by NA in the table below.

| Structure (SMILES) | % spleen growth inhibition, Fms [%] |
| --- | --- |
| FC1(F)CCC(Nc2ncc(Cc3c[nH]c4ncc(Cl)cc34)cn2)CC1 [Compound P-3004] | 43 |
| CCOc1ccc(Nc2ccc(C(=O)c3c[nH]c4ncc(C)cc34)c(F)n2)cn1 [Compound P-3045, [6-(6-ethoxy-pyridin-3-ylamino)-2-fluoro-pyridin-3-yl]-(5-methyl-1H-pyrrolo[2,3-b]pyridin-3-yl)-methanone] | 11 |
| CCOc1ncnc2[nH]cc(Cc3ccc(Nc4cnn(CC)c4)nc3F)c12 [Compound P-4012, [5-(4-Ethoxy-7H-pyrrolo[2,3-d]pyrimidin-5-ylmethyl)-6-fluoro-pyridin-2-yl]-(1-ethyl-1H-pyrazol-4-yl)-amine] | 24 |
| CCOc1ccc(Nc2ccc(Cc3c[nH]c4ncnc(C5CC5)c34)c(F)n2)cn1 [Compound P-4026, [5-(4-Cyclopropyl-7H-pyrrolo[2,3-d]pyrimidin-5-ylmethyl)-6-fluoro-pyridin-2-yl]-(6-ethoxy-pyridin-3-yl)-amine] | 41 |
| CCOc1ccc(Nc2ccc(C(=O)c3c[nH]c4ncnc(C5CC5)c34)c(F)n2)cn1 [Compound P-4027, (4-Cyclopropyl-7H-pyrrolo[2,3-d]pyrimidin-5-yl)-[6-(6-ethoxy-pyridin-3-ylamino)-2-fluoro-pyridin-3-yl]-methanone] | −1.4 |
| CCc1ccc(Nc2ccc(C(=O)c3c[nH]c4ncnc(C5CC5)c34)c(F)n2)cn1 [Compound P-4029, (4-Cyclopropyl-7H-pyrrolo[2,3-d]pyrimidin-5-yl)-[6-(6-ethyl-pyridin-3-ylamino)-2-fluoro-pyridin-3-yl]-methanone] | 66 |
| Cc1ccc(Nc2ccc(C(=O)c3c[nH]c4ncnc(C5CC5)c34)c(F)n2)cn1 [Compound P-4031, (4-Cyclopropyl-7H-pyrrolo[2,3-d]pyrimidin-5-yl)-[2-fluoro-6-(6-methyl-pyridin-3-ylamino)-pyridin-3-yl]-methanone] | 29 |
| Fc1nc(NC2CCC(F)(F)CC2)ccc1Cc1c[nH]c2ncnc(NCC(F)(F)F)c12 [Compound P-4128, 5-[[6-[(4,4-difluorocyclohexyl)amino]-2-fluoro-3-pyridyl]methyl]-N-(2,2,2-trifluoroethyl)-7H-pyrrolo[2,3-d]pyrimidin-4-amine] | 15 |
| Fc1nc(Nc2ccc(C3CC3)nc2)ccc1Cc1c[nH]c2ncnc(NCC(F)(F)F)c12 [Compound P-4130, 5-[[6-[(6-cyclopropyl-3-pyridyl)amino]-2-fluoro-3-pyridyl]methyl]-N-(2,2,2-trifluoroethyl)-7H-pyrrolo[2,3-d]pyrimidin-4-amine] | 70 |
